From PMC6222509, “Dibasic Derivatives of Phenylcarbamic Acid against Mycobacterial Strains: Old Drugs and New Tricks?” (Molecules : A Journal of Synthetic Chemistry and Natural …, 2018)
Values after ≈ are worked out from the molar mass of the structure shown. Read-outs that look alike come from different tables or passages of the source.

Legend:
[1] = test system: Mycobacterium tuberculosis CNCTC My 331/88 (identical with H37Rv and ATCC 2794; MTv H37Rv); assay: in vitro antimycobacterial MIC, dilution micromethod in Šula's semisynthetic medium; assay type: cell-based
[2] = test system: M. tuberculosis H37Ra ATCC 25177 (MTa H37Ra); assay: in vitro antimycobacterial MIC, 96-well Middlebrook broth, alamarBlue; assay type: cell-based, Mycobacterium tuberculosis; conditions: 7-day cultivation, read-out: MIC MTa H37Ra 7-d
Description: In vitro susceptibitity of given mycobacteria to reference drugs isoniazid (INH), ethambutol (EMB), ofloxacin (OFLX) or ciprofloxacin (CPX) was tested as well (Table 6 and Table 7).
A value of a minimum inhibitory concentration (MIC) was the lowest concentration of a tested compound, (i) which inhibited growth of MTv H37Rv, MK 235/80, MK 6509/96 and MA 330/80, respectively; (ii) at which no visible growth of MTa H37Ra, MS, MK DSM as well as MM was observed.
The molecules 1a–p were also in vitro screened against an avirulent M. tuberculosis H37Ra ATCC 25177 (MTa H37Ra), M. kansasii DSM 44162 (MK DSM), M. smegmatis ATCC 700084 (MS) and M. marinum CAMP 5644 (MM), respectively, in the Department of Infectious Diseases and Microbiology (Faculty of Veterinary Medicine, University of Veterinary and Pharmaceutical Sciences in Brno, Czech Republic).
Determination of a minimum inhibitory concentration (MIC) against MTa H37Ra. The mycobacterium was grown on Middlebrook broth (MB; MiddleBrook Pharmaceuticals, Inc., Westlake, TX, USA), supplemented with Oleic-Albumin-Dextrose-Catalase (OADC) supplement (Difco, Lawrence, KS, USA) and salicylate-derived mycobactin J (2 μg/mL; Allied Monitor Inc., Fayette, MO, USA), an iron-binding siderophore.
At log phase growth, a culture sample (10 mL) was centrifuged at 15,000 rpm/20 min using a bench top centrifuge MPW-65R (MPW Med Instruments, Warsaw, Poland). Following removal of the supernatant, a pellet was washed in fresh liquid Middlebrook 7H9GC broth (MiddleBrook Pharmaceuticals, Inc.) and re-suspended in a fresh OADC-supplemented MB (10 mL).
Turbidity was adjusted to match the McFarland standard No. 1 [87] containing approximately 3 × 10^8 Colony Forming Units (CFU) with MB broth. Further 1:20 dilution of the culture was performed in MB broth.
Susceptibility of MTa H37Ra was investigated in a 96-well plate format. In the experiments, sterile deionized water (300 µL) was added to all outer-perimeter wells of the plates to minimize evaporation of the medium in test wells during incubation. Each evaluated compound (100 µL) was incubated with MTa H37Ra (100 µL). Dilutions of each compound were prepared in triplicate and final concentrations varied from 1000 μg/mL to 8 μg/mL. All tested molecules were dissolved in DMSO (Sigma-Aldrich, Irvine, UK), and subsequent dilutions were made in supplemented MB broth. The plates were sealed with parafilm and incubated at 37 °C for 7 days.
Following incubation, 10% addition a water-soluble dye, the alamarBlue reagent (AbD Serotec, Kidlington, UK) was mixed into each well. This resaurin-based reagent served as an oxidation-reduction indicator of metabolic function and cellular health in cell viability bioassays.
Absorbance readings at 570 nm and 600 nm were taken, initially for background subtraction and after 24h re-incubation. The subtraction is necessary for strongly colored compounds, where the color may interfere with the interpretation of any color change. For non-interfering compounds, a blue color in a well was interpreted as absence of growth and pink color was scored as growth.
The minimum inhibitory concentration (MIC) was defined as the lowest concentration of a compound, at which no visible bacterial growth was observed. In other words, the MIC was the lowest concentration that prevented visual color change from blue to pink.

[3] = test system: M. kansasii CNCTC My 235/80 (identical with ATCC 12478; MK 235/80); assay: in vitro antimycobacterial MIC, dilution micromethod in Šula's semisynthetic medium; assay type: cell-based, Mycobacterium kansasii
[4] = Mycobacterium tuberculosis, 336 h, 14-day cultivation, read-out: MIC MTv H37Rv 14-d
[5] = Mycobacterium tuberculosis, 504 h, 21-day cultivation, read-out: MIC MTv H37Rv 21-d
[6] = Mycobacterium tuberculosis, 168 h
[7] = Mycobacterium kansasii, ATCC12478, 168 h, 7-day cultivation, read-out: MIC MK 235/80 7-d
[8] = Mycobacterium kansasii, ATCC12478, 336 h, 14-day cultivation, read-out: MIC MK 235/80 14-d
[9] = Mycobacterium kansasii, ATCC12478, 504 h, 21-day cultivation, read-out: MIC MK 235/80 21-d
[10] = 14-day cultivation, read-out: MIC MK 235/80 14-d
[11] = 21-day cultivation, read-out: MIC MK 235/80 21-d
[12] = Mycobacterium kansasii, ATCC12478, 168 h, read-out: MIC MK 235/80 7-d
[13] = Mycobacterium kansasii, ATCC12478, 336 h, read-out: MIC MK 235/80 14-d
[14] = Mycobacterium kansasii, ATCC12478, 504 h, read-out: MIC MK 235/80 21-d
[15] = Mycobacterium kansasii, ATCC12478, read-out: MIC MK 235/80

SMILES	MIC [1, 4]	MIC [1, 5]	MIC [2, 6]	MIC [3, 7]	MIC [3, 8]	MIC [3, 9]	MIC [2]	MIC [3, 10]	MIC [3, 11]	MIC [3, 12]	MIC [3, 13]	MIC [3, 14]	MIC [3, 15]	MIC ([1]; 14-day cultivation, read-out: MIC MTv H37Rv 14-d)	MIC ([1]; 21-day cultivation, read-out: MIC MTv H37Rv 21-d)	MIC ([3]; 7-day cultivation, read-out: MIC MK 235/80 7-d)	MIC ([3]; Mycobacterium kansasii, ATCC12478, cultivation time not given, read-out: MIC MK 235/80)
CCCCOc1cccc(NC(=O)OC(CN(CCC)CCC)CN2CCCCCC2)c1 (stereo not drawn) [1m]	8 µM (≈ 3.58 µg/mL)	16 µM (≈ 7.16 µg/mL)	15.4 µM (≈ 6.89 µg/mL)	16 µM (≈ 7.16 µg/mL)	16 µM (≈ 7.16 µg/mL)	32 µM (≈ 14.3 µg/mL)											
CCCCOc1ccccc1NC(=O)OC(CN(CCC)CCC)CN1CCCC1 (stereo not drawn) [1a]	32 µM (≈ 13.4 µg/mL)	32 µM (≈ 13.4 µg/mL)	213 µM (≈ 89.4 µg/mL)	62.5 µM (≈ 26.2 µg/mL)	62.5 µM (≈ 26.2 µg/mL)	62.5 µM (≈ 26.2 µg/mL)											
CCCCOc1cccc(NC(=O)OC(CN(CCC)CCC)CN2CCCC2)c1 (stereo not drawn) [1e]	16 µM (≈ 6.71 µg/mL)	32 µM (≈ 13.4 µg/mL)	8.1 µM (≈ 3.4 µg/mL)	32 µM (≈ 13.4 µg/mL)	32 µM (≈ 13.4 µg/mL)	32 µM (≈ 13.4 µg/mL)											
CCCCCOc1ccccc1NC(=O)OC(CN(CCC)CCC)CN1CCCC1 (stereo not drawn) [1b]	16 µM (≈ 6.94 µg/mL)	32 µM (≈ 13.9 µg/mL)	52 µM (≈ 22.5 µg/mL)	32 µM (≈ 13.9 µg/mL)	32 µM (≈ 13.9 µg/mL)	62.5 µM (≈ 27.1 µg/mL)											
CCCCCCCOc1cccc(NC(=O)OC(CN(CCC)CCC)CN2CCCCCC2)c1.O=C(O)C(=O)O (stereo not drawn) [1l, 1-[2-[({[3-(hept-yloxy)phenyl]amino}carbonyl)oxy]-3-(dipropylammonio)propyl]azepanium oxalate]	4 µM	8 µM		16 µM			96 µM	32 µM	32 µM								
CCCCCCCOc1cccc(NC(=O)OC(CN(CCC)CCC)CN2CCCC2)c1.Cl.Cl (stereo not drawn) [1h, 1-[2-[({[3-(heptyloxy)phenyl]amino}carbonyl)oxy]-3-(dipropylammonio)propyl]pyrrolidinium dichloride]	4 µM	8 µM	< 3.7 µM							8 µM	8 µM	8 µM	8 µM				
CCCCCCCOc1cccc(NC(=O)OC(CN(CCC)CCC)CN2CCCCCC2)c1.Cl.Cl (stereo not drawn) [1p, 1-[2-[({[3-(heptyloxy)phenyl]amino}carbonyl)-oxy]-3-(dipropylammonio)propyl]azepanium dichloride]							7.1 µM	8 µM	8 µM					4 µM	8 µM	8 µM	8 µM
CCCCCCOc1cccc(NC(=O)OC(CN(CCC)CCC)CN2CCCC2)c1 (stereo not drawn) [1g]	8 µM (≈ 3.58 µg/mL)	16 µM (≈ 7.16 µg/mL)	< 3.8 µM	16 µM (≈ 7.16 µg/mL)	16 µM (≈ 7.16 µg/mL)	16 µM (≈ 7.16 µg/mL)											
CCCCOc1ccccc1NC(=O)OC(CN(CCC)CCC)CN1CCCCCC1 (stereo not drawn) [1i]	16 µM (≈ 7.16 µg/mL)	32 µM (≈ 14.3 µg/mL)	203 µM (≈ 90.9 µg/mL)	32 µM (≈ 14.3 µg/mL)	62.5 µM (≈ 28 µg/mL)	62.5 µM (≈ 28 µg/mL)											
CCCCCOc1ccccc1NC(=O)OC(CN(CCC)CCC)CN1CCCCCC1.O=C(O)C(=O)O (stereo not drawn) [1j, 1-[2-[({[2-(Pentyloxy)phenyl]amino}carbonyl)oxy]-3-(dipropylammonio)propyl]-azepanium oxalate]	16 µM	32 µM	199 µM							16 µM	32 µM	62.5 µM					
CCCCCCOc1ccccc1NC(=O)OC(CN(CCC)CCC)CN1CCCC1 (stereo not drawn) [1c]	16 µM (≈ 7.16 µg/mL)	16 µM (≈ 7.16 µg/mL)	25 µM (≈ 11.2 µg/mL)	32 µM (≈ 14.3 µg/mL)	32 µM (≈ 14.3 µg/mL)	32 µM (≈ 14.3 µg/mL)											
CCCCCCOc1cccc(NC(=O)OC(CN(CCC)CCC)CN2CCCCCC2)c1.Cl.Cl (stereo not drawn) [1o, 1-[2-[({[3-(hexyloxy)phenyl]amino}-carbonyl)oxy]-3-(dipropylammonio)propyl]azepanium dichloride]	8 µM	16 µM	7.3 µM							8 µM	16 µM	16 µM					
CCCCCCCOc1ccccc1NC(=O)OC(CN(CCC)CCC)CN1CCCC1.Cl.Cl (stereo not drawn) [1d, 1-[2-[({[2-(heptyl-oxy)phenyl]amino}carbonyl)oxy]-3-(dipropylammonio)propyl]pyrrolidinium dichloride]	8 µM	8 µM	12.5 µM							16 µM	16 µM	32 µM					
CCCCCCOc1ccccc1NC(=O)OC(CN(CCC)CCC)CN1CCCCCC1 (stereo not drawn) [1k]	8 µM (≈ 3.81 µg/mL)	16 µM (≈ 7.61 µg/mL)	195 µM (≈ 92.8 µg/mL)	16 µM (≈ 7.61 µg/mL)	32 µM (≈ 15.2 µg/mL)	62.5 µM (≈ 29.7 µg/mL)											
CCCCCOc1cccc(NC(=O)OC(CN(CCC)CCC)CN2CCCC2)c1.Cl.Cl (stereo not drawn) [1f, 1-[2-[({[3-(pentyloxy)phenyl]amino}carbonyl)oxy]-3-(dipropylammonio)propyl]-pyrrolidinium dichloride]	16 µM	16 µM	< 3.9 µM							16 µM	16 µM	32 µM					
CCCCCOc1cccc(NC(=O)OC(CN(CCC)CCC)CN2CCCCCC2)c1.Cl.Cl (stereo not drawn) [1n, 1-[2-[({[3-(pentyloxy)phenyl]amino}carbonyl)oxy]-3-(di-propylammonio)propyl]azepanium dichloride]	4 µM	8 µM	7.5 µM							8 µM	8 µM	8 µM	8 µM				
